According to ChEMBL document CHEMBL1201862, “PubChem BioAssay data set” (2004):
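Each compound was tested at five concentrations against cells in 96-well plates for 48 hours. GI50 marks 50% less growth.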 Calls of active or inactive are those of the source. No stated cut-off is given here; in the data, active = GI50 up to about 1.1 µM and inactive = higher. Residues, ends and D or L forms follow the SMILES beside them. *: point of attachment. Boc = CC(C)(C)OC(=O)*; OBn = c1ccc(CO*)cc1; Bn = c1ccc(C*)cc1

Tests used:
Experiment in all cases: growth of human tumour cells (NCI), 48 h
ACHN = tested on: ACHN
M14 = tested on: M14
UACC-62 = tested on: UACC-62
MDA-MB-435 = tested on: MDA-MB-435
LOX IMVI = tested on: LOX IMVI
A498 = tested on: A498
T47D = tested on: T47D
EKVX = tested on: EKVX
SK-MEL-5 = tested on: SK-MEL-5
CCRF-CEM = tested on: CCRF-CEM
MCF7 = tested on: MCF7
UO-31 = tested on: UO-31
NCI-H23 = tested on: NCI-H23
SF-295 = tested on: SF-295
TK-10 = tested on: TK-10
SNB-75 = tested on: SNB-75
SK-MEL-2 = tested on: SK-MEL-2
OVCAR-4 = tested on: OVCAR-4
SN12C = tested on: SN12C
HOP-92 = tested on: HOP-92

Structure (SMILES)	GI50 (ACHN)	GI50 (M14)	GI50 (UACC-62)	GI50 (MDA-MB-435)	GI50 (LOX IMVI)	GI50 (A498)	GI50 (T47D)	GI50 (EKVX)	GI50 (SK-MEL-5)	GI50 (CCRF-CEM)	GI50 (MCF7)	GI50 (UO-31)	GI50 (NCI-H23)	GI50 (SF-295)	GI50 (TK-10)	GI50 (SNB-75)	GI50 (SK-MEL-2)	GI50 (OVCAR-4)	GI50 (SN12C)	GI50 (HOP-92)
COc1ccc2[nH]c3c(C)c4ccnc(NCCCN(C)CCCNc5ccc([N+](=O)[O-])c6[nH]c7ccccc7c(=O)c56)c4c(C)c3c2c1	0.0207 µM (active)	0.422 µM (active)	0.82 µM (active)	0.471 µM (active)	0.14 µM (active)	0.841 µM (active)	0.815 µM (active)	0.271 µM (active)	0.11 µM (active)	0.212 µM (active)	0.0667 µM (active)	0.59 µM (active)	0.575 µM (active)	0.104 µM (active)	0.018 µM (active)	0.743 µM (active)	0.731 µM (active)	0.132 µM (active)	0.0524 µM (active)	
O=[N+]([O-])C(/C(Cl)=C(/Cl)N1CCOCC1)=C1\Nc2ccccc2O1	> 100 µM (inactive)	> 100 µM (inactive)	96.2 µM (inactive)	> 100 µM (inactive)		> 100 µM (inactive)	> 100 µM (inactive)	> 100 µM (inactive)		> 100 µM (inactive)	> 100 µM (inactive)	> 100 µM (inactive)	> 100 µM (inactive)	> 100 µM (inactive)		> 100 µM (inactive)	> 100 µM (inactive)	> 100 µM (inactive)	> 100 µM (inactive)	
S=C=NC1CCC(c2cc3ccccc3s2)(N2CCCCC2)CC1 (stereo unspecified)	1.93 µM (inactive)	1.86 µM (inactive)	1.76 µM (inactive)	1.62 µM (inactive)	1.64 µM (inactive)	2.26 µM (inactive)	2.99 µM (inactive)	2.16 µM (inactive)	1.56 µM (inactive)	0.577 µM (active)	2.09 µM (inactive)	2.19 µM (inactive)	1.92 µM (inactive)	2.58 µM (inactive)	2 µM (inactive)	1.87 µM (inactive)		1.87 µM (inactive)	1.82 µM (inactive)	1.68 µM (inactive)
CCN(CC)Cc1ccccc1CC(=O)N1c2ccccc2C(=O)Nc2cccnc21	> 100 µM (inactive)	> 100 µM (inactive)	> 100 µM (inactive)	> 100 µM (inactive)	> 100 µM (inactive)	> 100 µM (inactive)	> 100 µM (inactive)	> 100 µM (inactive)	> 100 µM (inactive)	33.7 µM (inactive)	41.2 µM (inactive)		> 100 µM (inactive)	> 100 µM (inactive)	> 100 µM (inactive)		> 100 µM (inactive)	> 100 µM (inactive)	> 100 µM (inactive)	> 100 µM (inactive)
CCCCCCCCCc1c(Cl)nc(Cl)nc1Cl	19.5 µM (inactive)	3.48 µM (inactive)	20 µM (inactive)	13.5 µM (inactive)	1.95 µM (inactive)	19.6 µM (inactive)	10.1 µM (inactive)	22.7 µM (inactive)	11.7 µM (inactive)	2.17 µM (inactive)	18.4 µM (inactive)	18.3 µM (inactive)	9.62 µM (inactive)	20.7 µM (inactive)	23 µM (inactive)	15 µM (inactive)		15 µM (inactive)	12.9 µM (inactive)	15.3 µM (inactive)
Oc1cccc(/C=N/N=c2/[nH][nH]/c(=N/N=C/c3cccc(O)c3)c3ccccc23)c1	14.3 µM (inactive)	21.7 µM (inactive)	13.5 µM (inactive)	22.9 µM (inactive)	11.7 µM (inactive)		15.7 µM (inactive)	18.3 µM (inactive)	0.933 µM (active)	3.83 µM (inactive)	26.7 µM (inactive)	15 µM (inactive)	16.2 µM (inactive)	13.5 µM (inactive)	22.1 µM (inactive)	12.9 µM (inactive)	22.6 µM (inactive)	17.4 µM (inactive)	11.6 µM (inactive)	15.9 µM (inactive)
c1ccc(C2OCC(OC3CCCCO3)CO2)cc1 (stereo unspecified)	> 100 µM (inactive)	> 100 µM (inactive)	> 100 µM (inactive)	> 100 µM (inactive)	> 100 µM (inactive)	> 100 µM (inactive)	> 100 µM (inactive)	> 100 µM (inactive)	> 100 µM (inactive)	> 10 µM (inactive)	> 100 µM (inactive)	75.5 µM (inactive)	> 100 µM (inactive)	> 100 µM (inactive)	> 100 µM (inactive)		> 100 µM (inactive)	> 100 µM (inactive)	> 100 µM (inactive)	> 100 µM (inactive)
Cc1cc(=O)oc2c(CNC(CO)C(=O)O)c(O)ccc12 (stereo unspecified)	> 100 µM (inactive)	> 100 µM (inactive)	> 100 µM (inactive)	> 100 µM (inactive)	> 100 µM (inactive)		> 100 µM (inactive)	> 100 µM (inactive)	> 100 µM (inactive)	> 100 µM (inactive)	> 100 µM (inactive)	73.1 µM (inactive)	> 100 µM (inactive)	> 100 µM (inactive)	80.9 µM (inactive)	> 100 µM (inactive)	> 100 µM (inactive)	> 100 µM (inactive)	> 100 µM (inactive)	> 100 µM (inactive)
O=c1oc2c(Cl)cc(Cl)cc2cc1C1=CSC2=NCCN12	49.7 µM (inactive)	55.2 µM (inactive)	51.9 µM (inactive)	32 µM (inactive)	59.8 µM (inactive)		36.5 µM (inactive)	41.9 µM (inactive)	27.4 µM (inactive)	31.3 µM (inactive)	28.8 µM (inactive)	29.3 µM (inactive)	46 µM (inactive)	40 µM (inactive)	73.1 µM (inactive)	65.8 µM (inactive)	> 100 µM (inactive)	39.7 µM (inactive)	51.8 µM (inactive)	28.6 µM (inactive)
CN(C)c1ccc(-c2nc(-c3cc4c(ccc5ccccc54)oc3=O)cs2)cc1	> 100 µM (inactive)	> 100 µM (inactive)	> 100 µM (inactive)	> 100 µM (inactive)	> 100 µM (inactive)		> 100 µM (inactive)	> 100 µM (inactive)	> 100 µM (inactive)	> 100 µM (inactive)	> 100 µM (inactive)	> 100 µM (inactive)		> 100 µM (inactive)	> 100 µM (inactive)	> 100 µM (inactive)	> 100 µM (inactive)	> 100 µM (inactive)	> 100 µM (inactive)	> 100 µM (inactive)
C1CCC2C(C1)CCCC2NC1=NCCO1 (stereo unspecified)	> 100 µM (inactive)	40 µM (inactive)	> 100 µM (inactive)	> 100 µM (inactive)	> 100 µM (inactive)	> 100 µM (inactive)	> 100 µM (inactive)	> 100 µM (inactive)	70 µM (inactive)	> 100 µM (inactive)	69.2 µM (inactive)	> 100 µM (inactive)	> 100 µM (inactive)	> 100 µM (inactive)	> 100 µM (inactive)	72.8 µM (inactive)	> 100 µM (inactive)	> 100 µM (inactive)	> 100 µM (inactive)	
COc1cc(-c2c3c(cc4c2OCO4)[C@@H](Nc2ccc4c(c2)Cc2cc(N[C@@H]5c6cc7c(cc6C(c6cc(OC)c(O)c(OC)c6)[C@H]6C(=O)OC[C@H]56)OCO7)ccc2-4)[C@H]2COC(=O)[C@@H]2C3)cc(OC)c1O (stereo partly specified)	47.8 µM (inactive)	21.9 µM (inactive)		13.7 µM (inactive)	51.3 µM (inactive)	44.3 µM (inactive)	98.2 µM (inactive)	74.6 µM (inactive)	18.5 µM (inactive)	> 100 µM (inactive)	27.9 µM (inactive)	21.9 µM (inactive)	76.4 µM (inactive)	20.3 µM (inactive)	31 µM (inactive)	> 100 µM (inactive)			> 100 µM (inactive)	10.2 µM (inactive)
C[C@@H]1C(O)CC[C@H](C)C12CC=CC2=O (stereo partly specified)	> 100 µM (inactive)		> 100 µM (inactive)	> 100 µM (inactive)	> 100 µM (inactive)	> 100 µM (inactive)	> 100 µM (inactive)	> 100 µM (inactive)	> 100 µM (inactive)		> 100 µM (inactive)	> 100 µM (inactive)	> 100 µM (inactive)	> 100 µM (inactive)	> 100 µM (inactive)		> 100 µM (inactive)	> 100 µM (inactive)	> 100 µM (inactive)	> 100 µM (inactive)
CC(C)CC(NC(=O)C(Cc1ccccc1)NC(=O)C(COCc1ccccc1)NC(=O)OC(C)(C)C)C(=O)OCc1ccccc1 (stereo not drawn) (Boc-Ser(Bn)-Phe-Leu-OBn; configuration not given here)	17.9 µM (inactive)	37.1 µM (inactive)	17.5 µM (inactive)	> 10 µM (inactive)	19.8 µM (inactive)	95.9 µM (inactive)	> 100 µM (inactive)	24.8 µM (inactive)		26.2 µM (inactive)	37.9 µM (inactive)	39.5 µM (inactive)	18.5 µM (inactive)	21.8 µM (inactive)	34 µM (inactive)	22.1 µM (inactive)	56.6 µM (inactive)	42.7 µM (inactive)	25.8 µM (inactive)	
